Data: patent US20050054536A1, “Beta-amino-alpha-cyanoacrylates and their use as herbicides” (priority 2001, published 2005)

Legend:
[1] = test system: Pharbitis purpurea; test: greenhouse experiment, post-emergence treatment, herbicidal activity; format: in vivo; details: application rate 1.0 kg/ha
Text: (§1) The seeds of the test plants were sown separately for each species. For the post-emergence treatment, the test plants were first grown to a height of from 3 to 15 cm, depending on the plant habit, and only then treated with the active compounds which had been suspended or emulsified in water. The test plants were for this purpose either sown directly and grown in the same containers, or they were first grown separately as seedlings and transplanted into the test containers a few days prior to treatment. The application rate for the post-emergence treatment was 0.5 or 1.0 kg of a.s. (active substance)/ha. Depending on the species, the plants were kept at from 10 to 25° C. or from 20 to 35° C. The test period extended over 2 to 4 weeks. During this time, the plants were tended, and their response to the individual treatments was evaluated. Evaluation was carried out using a scale from 0 to 100. 100 means no emergence of the plants, or complete destruction of at least the above-ground parts, and 0 means no damage, or normal course of growth. The plants used in the greenhouse experiments were of the following species: [table]

[2] = test system: Setaria faberii; test: greenhouse experiment, pre-emergence treatment, herbicidal activity; format: in vivo; details: application rate 1.0 kg/ha
Text: (§2) The seeds of the test plants were sown separately for each species. For the pre-emergence treatment, directly after sowing the active compounds, which had been suspended or emulsified in water, were applied by means of finely distributing nozzles. The containers were irrigated gently to promote germination and growth and subsequently covered with transparent plastic hoods until the plant had rooted. This cover caused uniform germination of the test plants, unless this was adversely affected by the active compounds. The application rate for a pre-emergence treatment was 0.5 or 1.0 kg of a.s. (active substance)/ha. Depending on the species, the plants were kept at from 10 to 25° C. or from 20 to 35° C. The test period extended over 2 to 4 weeks. During this time, the plants were tended, and their response to the individual treatments was evaluated. Evaluation was carried out using a scale from 0 to 100. 100 means no emergence of the plants, or complete destruction of at least the above-ground parts, and 0 means no damage, or normal course of growth. The plants used in the greenhouse experiments were of the following species: [table]

[3] = test system: Digitaria sanguinalis; test: greenhouse experiment, pre-emergence treatment, herbicidal activity; format: in vivo; details: application rate 1.0 kg/ha
Text: as §2

[4] = test system: Setaria faberii; test: greenhouse experiment, post-emergence treatment, herbicidal activity; format: in vivo; details: application rate 1.0 kg/ha
Text: as §1

[5] = test system: Amaranthus retroflexus; test: greenhouse experiment, pre-emergence treatment, herbicidal activity; format: in vivo; details: application rate 1.0 kg/ha
Text: as §2

| SMILES | post-emergence activity against the undesirable plant Pharbitis purpurea [1] | effect on the harmful plant Setaria faberii, pre-emergence method [2] | melting point [°C] | also measured |
| --- | --- | --- | --- | --- |
| CCC(CC)/C(N)=C(\C#N)C(=O)OCCOC [Example 2.22] | very good | very good | 70 |  |
| CCCOC(=O)/C(C#N)=C(\N)C(CC)CSC (stereo not shown) [Example 2.3, n-Propyl (2Z)-3-amino-2-cyano-4-[(methylsulfanyl)methyl]-2-hexenoate] |  |  | 78 |  |
| CCCOC(=O)/C(C#N)=C(\N)C(CC)CC [Example 2.2, n-Propyl (2Z)-3-amino-2-cyano-4-ethyl-2-hexenoate] | very good | very good | 84 | effect on the harmful plant Digitaria sanguinalis, pre-emergence method [3]: very good |
| CCOC(=O)/C(C#N)=C(\N)C(C)(C)CC [Example 2.8] |  |  | 65 to 67 |  |
| CCOC(=O)/C(C#N)=C(\N)C(CC)CC [Example 2.1, Ethyl (2Z)-3-amino-2-cyano-4-ethyl-2-hexenoate] | very good | very good | 85 to 87 | post-emergence activity against the undesirable plant Setaria faberii [4]: very good; effect on the harmful plant Amaranthus retroflexus, pre-emergence method [5]: very good |
| CCOC(=O)/C(C#N)=C(\N)C(C)(C)Br [Example 2.10] |  |  | 46 |  |
| CCOCCOC(=O)/C(C#N)=C(\N)C(CC)CC [Example 2.23] |  |  | 70 |  |
| CCOC(=O)/C(C#N)=C(\N)C(C)CC (stereo not shown) [Example 2.6] |  |  | 102 to 103 |  |
| CCOC(=O)/C(C#N)=C(\N)C(C)(C)Cl [Example 2.9] |  |  | 56 |  |
| CCC(CC)/C(N)=C(\C#N)C(=O)OC [Example 2.5] |  |  | 65 |  |
